Measured values published in PMC7587962, “Evaluation of Cytotoxicity and α-Glucosidase Inhibitory Activity of Amide and Polyamino-Derivatives of Lupane Triterpenoids” (Molecules, 2020).
Like-named read-outs stand apart in the source and are kept apart here.

Key:
[1] = test system: methicillin-resistant Staphylococcus aureus (MRSA); assay: Antibacterial growth inhibition, S. aureus; assay type: cell-based; details: for inhibition at 32 µg/mL: Staphylococcus aureus, ATCC 43300 / MRSA, S. aureus Strain ATCC 43300
Yeast α-Glucosidase = assay: Yeast α-glucosidase activity assay; assay type: biochemical, S. cerevisiae; details: pH 6.8, 37 °C, p-nitrophenyl-α-D-glucopyranoside 1 mM; read-out: Yeast α-Glucosidase, IC50 ± SE
Protocol: (§1) Taken together, these considerations prompted us to evaluate a series of lupanes with amide function or polyamine chain 11, 12, 16, 18, and 22–26 for α-glucosidase inhibition. Initially, they were screened against α-glucosidase of S. cerevisiae as an accessible and high-throughput model. Confirmatory experiments were performed on isolated rough endoplasmic reticulum vesicles from rat liver, which contain neutral α-glucosidases I and II in a membrane-bound form.
In a 96-well flat transparent plate, the 0.12 U/mL enzyme solution (EC 3.2.1.20, expressed in S. cerevisiae, Sigma #G0660, St. Louis, MO, USA) was incubated with test compounds in 67 mM PBS (pH 6.8) at 37 °C for 5 min. Then, p-nitrophenyl-α-D-glucopyranoside (Sigma #N1377, St. Louis, MO, USA) was added to 1 mM final concentration and an increase in absorbance was recorded for 15 min at 405 nm wavelength with Infinite M200 PRO microplate reader (Tecan, Austria). Test compounds were dissolved in DMSO and diluted to the desired concentration in 67 mM PBS (pH 6.8) supplemented with 0.01% Tween 80 to avoid aggregation. Final DMSO concentration was <0.25% in sample wells, and it was also introduced in control and blank wells. […] Due to the absence of normal distribution of data, a Mann–Whitney U-test was used to determine statistical significance versus enzyme control using GraphPad Prism 8.0.1.

Klebsiella pneumonia = assay: Antibacterial growth inhibition, K. pneumonia; assay type: cell-based; details: Klebsiella pneumoniae, ATCC700603, K. pneumonia Strain ATCC 700603
Candida albicans = assay: Antifungal growth inhibition, C. albicans; details: ATCC90028, read-out: % Growth inhibition
Protocol: (§2) The antifungal activity was determined against Candida albicans and Cryptococcus neoformans.
(§3) Samples were prepared in DMSO and water to a final testing concentration of 32 µg/mL, in 384-well, non-binding surface plate (NBS) for each bacterial/fungal strain, and in duplicate (n = 2) and keeping the final DMSO concentration to a maximum of 1% DMSO. All the sample-preparation was done using liquid handling robots.
(§4) Fungi strains were cultured for 3 days on Yeast Extract-Peptone Dextrose (YPD) agar at 30 °C. A yeast suspension of 1 × 10^6 to 5 × 10^6 CFU/mL (as determined by OD530) was prepared from five colonies. The suspension was subsequently diluted and added to each well of the compound-containing plates giving a final cell density of fungi suspension of 2.5 × 10^3 CFU/mL and a total volume of 50 µl. All plates were covered and incubated at 35 °C for 24 h without shaking.
(§5) The absorbance was measured using a Biotek Synergy HTX plate reader. The percentage of growth inhibition was calculated for each well, using negative control (media only) and positive control (fungi without inhibitors) on the same plate. The significance of the inhibition values was determined by modified Z-scores, calculated using the median and MAD of the samples (no controls) on the same plate. Samples with an inhibition value above 80% and Z-score above 2.5 for either replicate (n = 2 on different plates) were classed as actives. Samples with inhibition values between 50% and 80% and a Z-score above 2.5 for either replicate were classed as partial actives.

[2] = test system: Rat Liver ER Neutral α-Glucosidase; assay: Endoplasmic reticulum α-glucosidase activity assay; assay type: biochemical
Source text: as §1, with “Betulinic acid inhibits yeast α-glucosidase activity and interferes with N-linked glycan modifications to cell-surface intercellular adhesion molecule-1 (ICAM-1) in human lung carcinoma A549 cells in a similar manner to castanospermine, an inhibitor of endoplasmic reticulum α-glucosidases I and II [66]. […] Taken” for “Taken”
Endoplasmic reticulum was isolated from hepatocytes of decapitated male Sprague-Dawley rats, which were starved overnight and sacrificed the next morning. All experiments were approved by Volgograd regional ethic committee. The whole procedure was performed at 4 °C. In brief, a fresh tissue sample from an animal was washed twice with 10 mL of PBS to remove residual blood. The tissue was placed on a paper towel in order to absorb excess liquid and blood clots, if present. It was cut further into small pieces (1.5–2 cm) and washed once more. […] Homogenate was centrifuged at 1000× g for 10 min at 4 °C. After removal of the floating lipid layer by aspiration, supernatant was separated and centrifuged at 12,000× g for 15 min. at 4 °C. The supernatant fraction, which is the post mitochondrial fraction (PMF), was used for isolation of rough endoplasmic reticulum (RER) enriched microsomes by precipitation with 8 mM CaCl2 added dropwise. The final concentration of CaCl2 was 7 mM. Resulting sample was centrifuged at 8000 g for 10 min. at 4 °C. The supernatant was discarded, and the pellet was suspended in isotonic extraction buffer (0.3 mL of buffer for each g of original tissue). The suspension was homogenized completely to afford RER enriched microsomes. In a 96-well flat transparent plate 25 µL of the isolated RER microsomes were incubated with 50 µL of test compounds in 67 mM PBS (pH 6.8) at 37 °C for 10 min. Then, p-nitrophenyl-α-D-glucopyranoside (Sigma #N1377, St. Louis, MO, USA) was added to 1 mM final concentration and increase in absorbance was recorded for 42 min at 405 nm wavelength with Infinite M200 PRO microplate reader (Tecan, Austria). Concentration of RER microsomes was adjusted to achieve an increase in optical density of ~0.2 in control samples after 30 min. of incubation. Test compounds were prepared as described above for the yeast α-glucosidase assay.

Escherichia coli = assay: Antibacterial growth inhibition, E. coli; assay type: cell-based; details: ATCC25922, E. coli Strain ATCC 25922
Acinetobacter baumannii = assay: Antibacterial growth inhibition, A. baumannii; assay type: cell-based; details: ATCC27853, A. baumannii Strain ATCC 27853
SR = assay: NCI-60 SRB screen: leukemia SR; assay type: cell-based; details: Homo sapiens, 48 h, single dose 10 µM, read-out: Percentage Cell Growth
[3] = test system: pathogenic microorganisms; assay: Primary antimicrobial screening, five bacterial strains and two fungi; set-up: dose or concentration left out as unconfirmed
Protocol: The antifungal activity was determined against Candida albicans and Cryptococcus neoformans. […] Samples with inhibition value above 80% were classed as actives. Samples with inhibition values between 50 and 80% were classed as partial actives.
as §3
All bacteria were cultured in cation-adjusted Mueller Hinton broth (CAMHB) at 37 °C overnight. A sample of each culture was then diluted 40-fold in fresh broth and incubated at 37 °C for 1.5–3 h. The resultant mid-log phase cultures were diluted (CFU/ ml measured by OD600), then added to each well of the compound containing plates, giving a cell density of 5 × 10^5 CFU/mL and a total volume of 50 µl. All the plates were covered and incubated at 37 °C for 18 h without shaking.
Inhibition of bacterial growth was determined measuring absorbance at 600 nm (OD600), using a Tecan M1000 Pro monochromator plate reader. The percentage of growth inhibition was calculated for each well, using negative control (media only) and positive control (bacteria without inhibitors) on the same plate as references. The significance of the inhibition values was determined by modified Z-scores, calculated using the median and MAD of the samples (no controls) on the same plate. Samples with inhibition value above 80% and Z-score above 2.5 for either replicate were classed as actives. […]
Fungi strains were cultured for 3 days on Yeast Extract-Peptone Dextrose (YPD) agar at 30 °C. A yeast suspension of 1 × 10^6 to 5 × 10^6 CFU/mL (as determined by OD530) was prepared from five colonies. […]
The absorbance was measured using a Biotek Synergy HTX plate reader. The percentage of growth inhibition was calculated for each well, using negative control (media only) and positive control (fungi without inhibitors) on the same plate. […]

[4] = test system: 60 human tumor cell lines; assay: cells
Pseudomonas aeruginosa = assay: Antibacterial growth inhibition, P. aeruginosa; assay type: cell-based; details: P. aeruginosa Strain 19606
Cryptococcus neoformans = assay: Antifungal growth inhibition, C. neoformans; set-up: activity class in primary screening: dose or concentration left out as unconfirmed; details: for inhibition at 32 µg/mL: Cryptococcus neoformans, ATCC208821, read-out: % Growth inhibition
Protocol: as §2, §3, §4, §5

| Structure (SMILES) | inhibition at 32 µg/mL [1] | IC50 (Yeast α-Glucosidase) | inhibition at 32 µg/mL (Klebsiella pneumonia) | inhibition at 32 µg/mL (Candida albicans) | Rat Liver ER Neutral α-Glucosidase Inhibition, m ± SD ([2]; 10 μM) | Rat Liver ER Neutral α-Glucosidase Inhibition, m ± SD ([2]; 100 μM) | inhibition at 32 µg/mL (Escherichia coli) | inhibition at 32 µg/mL (Acinetobacter baumannii) | activity at 10 µM (SR) | inhibition of growth of pathogenic microorganisms [3] | activity at 10 µM ([4]; read-out: Mean Growth, %) | activity at 10 µM ([4]; read-out: Range of Growth, %) | inhibition at 32 µg/mL (Pseudomonas aeruginosa) | inhibition at 32 µg/mL (Cryptococcus neoformans) | activity class in primary screening ([1]; methicillin-resistant S. aureus, one concentration of 32 µg/mL) | activity class in primary screening (Cryptococcus neoformans; C. neoformans, one concentration) |
| --- | --- | --- | --- | --- | --- | --- | --- | --- | --- | --- | --- | --- | --- | --- | --- | --- |
| C=C(C)[C@@H]1CC[C@]2(C(=O)OC)CC[C@]3(C)[C@H](CC[C@@H]4[C@@]5(C)C/C(=C/NC(N)=O)C(=O)C(C)(C)[C@@H]5CC[C@]43C)[C@@H]12 [Compound 25] | 19.8% | 53.3 ± 5.7 µM | 2.44% | 14% | 8.76 ± 9.63% | 9.62 ± 6.94% | -5.34% | 40.9% | 21.2% | did not inhibit the growth | 91.7% | 21.2 to 112% | -8.92% | -7.93% |  |  |
| C=C(C)[C@@H]1CC[C@]2(C=NCCCNCCCCN)CC[C@]3(C)[C@H](CC[C@@H]4[C@@]5(C)CCCNC(C)(C)[C@@H]5CC[C@]43C)[C@@H]12 [Compound 24] |  | > 100 µM |  |  | 26.96 ± 2.33 % | 54.62 ± 15.38 % |  |  | 21.7% |  | 93.6% | 21.7 to 132% |  |  |  |  |
| C=C(C)[C@@H]1CC[C@]2(C(=O)NCCNCCN)CC[C@]3(C)[C@H](CC[C@@H]4[C@@]5(C)CCC(=O)C(C)(C)[C@@H]5CC[C@]43C)[C@@H]12 [Compound 12] | 71.8% | > 100 µM | 9.2% | 11.7% | 10.21 ± 3.49% | 23.59 ± 1.34 % | -9.57% | 19.5% |  |  | 98.9% | 59.1 to 141% | 7.72% | 62.6% | partial activity | partial activity |
| C=C(C)[C@@H]1CC[C@]2(C=NCCCNCCCCN)CC[C@]3(C)[C@H](CC[C@@H]4[C@@]5(C)CCC(=O)C(C)(C)[C@@H]5CC[C@]43C)[C@@H]12 [Compound 22] |  | > 100 µM |  |  | 31.42 ± 7.96 % | 58.52 ± 8.21 % |  |  |  |  | 102% | 80.5 to 123% |  |  |  |  |
| C=C(C)[C@@H]1CC[C@]2(C(=O)OC)CC[C@]3(C)[C@H](CC[C@@H]4[C@@]5(C)C/C(=C/NC(N)=S)C(=O)C(C)(C)[C@@H]5CC[C@]43C)[C@@H]12 [Compound 26] | 12.7% | > 100 µM | -3.89% | 5.83% | 11.63 ± 9.09% | 26.60 ± 13.03% | -7.03% | 28.2% |  | did not inhibit the growth | 90.5% | 60.9 to 126% | -4.64% | -13% |  |  |
| C=C(C)[C@@H]1CC[C@]2(C(=O)N3CCCNCC3)CC[C@]3(C)[C@H](CC[C@@H]4[C@@]5(C)CCC(=O)C(C)(C)[C@@H]5CC[C@]43C)[C@@H]12 [Compound 2, 28-(1,4-Diazepan-1-yl)-28-oxolup-20(29)-en-3-one] | 40.3% |  | 0.98% | 4.14% |  |  | 1.96% | 33.1% | 8.04% | did not inhibit the growth | 89.5% | 8.04 to 127% | 8.34% | -5.9% |  |  |
| C=C(C)[C@@H]1CC[C@]2(C(=O)NCCCNCCCN)CC[C@]3(C)[C@H](CC[C@@H]4[C@@]5(C)CCC(=O)C(C)(C)[C@@H]5CC[C@]43C)[C@@H]12 [Compound 16] |  | > 100 µM |  |  | 9.05 ± 6.68% | 14.94 ± 6.31% |  |  |  |  | 101% | 59.3 to 141% |  |  |  |  |
